In PMC10299128, “The Parallel Structure–Activity Relationship Screening of Three Compounds Identifies the Common Agonist Pharmacophore of Pyrrolidine Bis-Cyclic Guanidine Melanocortin-3 Receptor (MC3R) Small-Molecule Ligands” (International Journal of Molecular Sciences, 2023):
Read-outs that look alike come from different tables or passages of the source.

Tests used:
mMC5R [1] = target: T1, mMC5R (Mus musculus, UniProt P41149); parameters: expressed in transfected cells; method as in PMID 33886285; settings: β-galactosidase reporter gene assay; read-out: mMC5R agonist EC50 (previously reported); cited from earlier work
mMC4R [2] = target: T2, mMC4R (Mus musculus, UniProt P56450); parameters: expressed in transfected cells; method as in PMID 33886285; settings: cited from earlier work; for mMC4R partial stimulation, % activation (previously reported): at 10 µM
mMC1R [3] = target: T3, mMC1R (Mus musculus, UniProt Q01727); experiment: AlphaScreen cAMP agonist assay, HEK293 cells stably expressing mMC1R
Protocol: (§1) Pyrrolidine bis-cyclic guanidine compounds were assessed for biological activity using the AlphaScreen cAMP kit with HEK293 cells stably expressing the mMC1R, mMC3R, mMC4R, or mMC5R, as previously described [37, 38, 39]. […] Compounds were assayed for agonist activity in a 7-point dose–response curve (10^−3 to 10^−9 M). […] The purified compounds were dissolved in DMSO at a stock concentration of 10^−1 M and assayed using HEK293 cells stably expressing the mouse MC1R, MC3R, MC4R, and MC5R using the AlphaScreen cAMP bioassay (PerkinElmer, Waltham, MA, USA) according to the manufacturer’s instructions and as previously described [37, 38, 39].
(§2) Briefly, cells 70−90% confluent were dislodged with Versene (Gibco, Waltham, MA, USA) at 37 °C and 10,000 cells/well were plated in a 384-well plate (Optiplate, PerkinElmer, Waltham, MA, USA) with 10 μL of freshly prepared stimulation buffer (1× HBSS, 5 mM HEPES, 0.5 mM IBMX, 0.1% BSA, pH = 7.4) with 0.5 μg of anti-cAMP acceptor beads per well. The cells were stimulated with the addition of 5 μL of stimulation buffer containing compound or forskolin (10^−4 M) and incubated in the dark at room temperature for 2 h. Following stimulation, streptavidin donor beads (0.5 μg) and biotinylated cAMP (0.62 μmol) were added to the wells in a green light environment with 10 μL of lysis buffer (5 mM HEPES, 0.3% Tween-20, 0.1% BSA, pH = 7.4) and the plates were incubated in the dark at room temperature for an additional 2 h. Plates were read on a Enspire (PerkinElmer, Waltham, MA, USA) Alpha plate reader using a pre-normalized assay protocol (set by the manufacturer).

mMC1R [4] = target: T3, mMC1R; parameters: expressed in transfected cells; method as in PMID 33886285; settings: cited from earlier work
mMC4R [5] = target: T2, mMC4R; parameters: expressed in transfected cells; method as in PMID 33886285; settings: with agonist MTII; cited from earlier work
mMC5R [6] = target: T1, mMC5R; experiment: AlphaScreen cAMP agonist assay, HEK293 cells stably expressing mMC5R
Protocol: as §1, §2

mMC4R [7] = target: T2, mMC4R; settings: antagonist, Schild analysis with agonist NDP-MSH; mean ± SEM
Protocol: as §1, §2

mMC4R [8] = target: T2, mMC4R; experiment: cell-based
Protocol: as §1, §2

mMC3R [9] = target: T4, mMC3R (Mus musculus, UniProt P33033); experiment: AlphaScreen cAMP agonist assay, HEK293 cells stably expressing mMC3R
Protocol: as §1, §2

mMC3R [10] = target: T4, mMC3R; parameters: expressed in transfected cells; method as in PMID 33886285; settings: β-galactosidase reporter gene assay; read-out: mMC3R agonist EC50 (previously reported); cited from earlier work
mMC4R [11] = target: T2, mMC4R; experiment: AlphaScreen cAMP agonist assay, HEK293 cells stably expressing mMC4R; settings: for mMC4R partial agonist efficacy bin: sigmoidal curve, efficacy <90% of NDP-MSH
Protocol: as §1, §2

MC1R = tested on: MC1R; parameters: method as in PMID 21215742; settings: read-out: MC1R antagonist IC50; cited from earlier work
MC5R = tested on: MC5R; parameters: method as in PMID 21215742; settings: read-out: MC5R antagonist IC50; cited from earlier work
[12] = target: mouse melanocortin-5 receptor (mouse) (UniProt P41149)
[13] = target: mouse melanocortin-3 receptor (mouse) (UniProt P33033)
[14] = target: mouse melanocortin-1 receptor (mouse) (UniProt Q01727)
Chain of mouse melanocortin-1 receptor (mouse) (Q01727 whole entry): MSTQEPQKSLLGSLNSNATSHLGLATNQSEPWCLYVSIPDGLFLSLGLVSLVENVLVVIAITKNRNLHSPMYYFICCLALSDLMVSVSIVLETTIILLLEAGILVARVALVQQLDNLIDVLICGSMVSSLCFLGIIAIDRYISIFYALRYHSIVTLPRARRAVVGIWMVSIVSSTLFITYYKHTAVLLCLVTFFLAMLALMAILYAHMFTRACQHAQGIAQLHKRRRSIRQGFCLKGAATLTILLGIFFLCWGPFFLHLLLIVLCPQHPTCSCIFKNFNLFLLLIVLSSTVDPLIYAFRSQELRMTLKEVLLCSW

T3 sequence (Q01727 whole entry): as above
T4 sequence (P33033 whole entry): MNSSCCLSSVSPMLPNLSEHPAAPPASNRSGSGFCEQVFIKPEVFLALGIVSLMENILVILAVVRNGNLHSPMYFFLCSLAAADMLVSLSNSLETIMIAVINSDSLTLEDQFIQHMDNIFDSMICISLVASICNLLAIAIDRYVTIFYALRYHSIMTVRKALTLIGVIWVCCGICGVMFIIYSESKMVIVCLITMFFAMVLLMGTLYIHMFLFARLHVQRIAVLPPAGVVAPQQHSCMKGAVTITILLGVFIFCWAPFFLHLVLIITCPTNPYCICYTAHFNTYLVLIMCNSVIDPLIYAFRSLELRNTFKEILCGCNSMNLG
T1 sequence (P41149 whole entry): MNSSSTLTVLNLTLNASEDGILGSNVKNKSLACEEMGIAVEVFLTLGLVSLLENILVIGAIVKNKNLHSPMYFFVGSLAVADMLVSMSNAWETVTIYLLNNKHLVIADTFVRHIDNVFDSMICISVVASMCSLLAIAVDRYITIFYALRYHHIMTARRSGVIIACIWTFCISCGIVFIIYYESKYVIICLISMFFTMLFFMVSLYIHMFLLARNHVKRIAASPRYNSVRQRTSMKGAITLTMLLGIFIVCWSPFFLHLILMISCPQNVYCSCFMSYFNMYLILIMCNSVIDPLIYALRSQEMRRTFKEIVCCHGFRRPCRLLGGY
T2 sequence (P56450 whole entry): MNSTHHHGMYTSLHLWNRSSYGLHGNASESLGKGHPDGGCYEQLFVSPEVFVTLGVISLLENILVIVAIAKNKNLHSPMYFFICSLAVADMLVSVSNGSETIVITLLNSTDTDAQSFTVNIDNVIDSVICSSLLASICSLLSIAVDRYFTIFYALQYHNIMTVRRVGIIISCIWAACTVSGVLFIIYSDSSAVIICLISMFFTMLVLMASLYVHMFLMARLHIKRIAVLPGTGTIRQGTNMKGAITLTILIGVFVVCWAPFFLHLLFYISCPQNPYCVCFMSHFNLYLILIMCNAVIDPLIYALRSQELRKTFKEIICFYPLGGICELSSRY
Chain of mouse melanocortin-3 receptor (mouse) (P33033 whole entry): as the sequence (P33033 whole entry) above
Chain of mouse melanocortin-5 receptor (mouse) (P41149 whole entry): as the sequence (P41149 whole entry) above

| Compound | EC50 (mMC5R [1]) [nM] | mMC4R partial stimulation, % activation (previously reported) (mMC4R [2]) | EC50 (mMC1R [3]) [nM] | mMC4R antagonist pA2 (previously reported) (mMC4R [5]) | EC50 (mMC5R [6]) [nM] | mMC4R pA2 (mMC4R [7]) | Kb (mMC4R [8]) [nM] | EC50 (mMC3R [9]) [nM] | EC50 (mMC3R [10]) [nM] | EC50 (mMC4R [11]) [nM] | mMC4R partial agonist efficacy bin (mMC4R [11]) | further results |
| --- | --- | --- | --- | --- | --- | --- | --- | --- | --- | --- | --- | --- |
| CC(C)CC1CNC(=N)N1CC1CCCN1CC(Cc1ccccc1)N1CC(C(C)O)N(CC2CCC(C(C)(C)C)CC2)C1=N (stereo not shown) [Compound 2718.001] | 530 | 10–50% | 320 ± 30 | 7.0 | 260 ± 30 | 6.0 | 1000 | 270 ± 20 | 310 | – | – | mMC1R partial stimulation, % efficacy (previously reported) (mMC1R [4]; at 10 µM): 58% |
| CC(C)CC1CNC(=N)N1CC1CCCN1CC(CC1CCCCC1)N1CC(C(C)O)N(CC2CCC(C(C)(C)C)CC2)C1=N (stereo not shown) [Compound 2718.002] | 140 | – | 270 ± 20 | 5.8 | 290 ± 10 | 6.2 | 631 | 240 ± 8 | 210 | 1200 ± 300 | A (A (20–50% receptor activation)) | EC50 (mMC4R [2]; partial agonist, read-out: mMC4R partial agonist EC50 (previously reported)): 270 nM; mMC4R partial agonist efficacy, % MTII signal (previously reported) (mMC4R [2]; relative to MTII): 45%; EC50 (mMC1R [4]; β-galactosidase reporter gene assay, read-out: mMC1R agonist EC50 (previously reported)): 300 nM |
| CCCC1CN(C(CC2CCCCC2)CN2CCCC2CN2C(=N)NCC2C(C)C)C(=N)N1CC1CCC(C(C)(C)C)CC1 (stereo not shown) [Compound 2718.003] | 540 | 50% | 640 ± 30 | 5.8 | 1200 ± 200 | 5.9 | 1260 | 2000 ± 300 | 350 | 2500 ± 600 | A (A (20–50% receptor activation)) | mMC1R partial stimulation (previously reported) (mMC1R [4]; at 100 µM): 50–90%; fold decreased mMC3R potency between the previous reported values and the present study (mMC3R [9]; AlphaScreen (present) vs previously reported value [29]): 6 fold |
| CCC[C@@H]1CN([C@H](CC2CCCCC2)CN2CCC[C@H]2CN2CCNC2=N)C(=N)N1CC1CCC(C(C)(C)C)CC1 (stereo partly shown) [Compound 2718.029] | – | – | 1100 ± 300 | – | 1300 ± 100 | 5.8 | 1580 | 3300 ± 100 | – | 2900 ± 400 | B (B (51–90% receptor activation)) | mMC3R agonist efficacy (in words) (mMC3R [9]; relative to NDP-MSH, full = >90% receptor activation): full agonist efficacy |
| COc1ccccc1-c1nc(=Nc2ccccc2)sn1-c1ccccc1OC [JNJ-10229570] | – | – | – | – | – | – | – | – | – | – | – | IC50 (MC1R): 200 to 300 nM; IC50 (MC5R): 200 to 300 nM |
| NDP-MSH (peptide) | – | – | – | – | – | – | – | – | – | – | – | EC50 of agonist activity, AlphaScreen cAMP assay, HEK293 cells stably expressing mMC5R [12]: 0.1 nM; EC50 of agonist activity, AlphaScreen cAMP assay, HEK293 cells stably expressing mMC3R [13]: 0.069 nM; EC50 of agonist activity, AlphaScreen cAMP assay, HEK293 cells stably expressing mMC1R [14]: 0.055 nM |
